Measurements taken from the NIST ThermoML archive (doi:10.1021/je100832h).

Tests used:
[1] = xn = mol fraction of the nth substance listed; conditions: 101.32 kPa, Liquid, Vibrating tube method
[2] = excess molar enthalpy (molar enthalpy of mixing); xn = mol fraction of the nth substance listed; conditions: 101 kPa, Liquid, Calvet calorimetry

CCOC(C)=O [ethyl acetate] + CCCCCC
Conditions | excess molar enthalpy [kcal/mol] | mass density [kg/m3]
[1], 291.15 K, x1 = 0.0165 | – | 663.7
[1], 291.15 K, x1 = 0.0655 | – | 671.62
[1], 291.15 K, x1 = 0.1077 | – | 678.72
[1], 291.15 K, x1 = 0.1823 | – | 692.02
[1], 291.15 K, x1 = 0.1962 | – | 694.54
[1], 291.15 K, x1 = 0.2716 | – | 709.09
[1], 291.15 K, x1 = 0.3518 | – | 725.37
[1], 291.15 K, x1 = 0.4166 | – | 739.37
[1], 291.15 K, x1 = 0.5519 | – | 770.91
[1], 291.15 K, x1 = 0.6225 | – | 788.69
[1], 291.15 K, x1 = 0.6795 | – | 803.74
[1], 291.15 K, x1 = 0.7429 | – | 821.35
[1], 291.15 K, x1 = 0.8048 | – | 839.41
[1], 291.15 K, x1 = 0.898 | – | 868.3
[1], 291.15 K, x1 = 0.9604 | – | 888.98
[1], 291.15 K, x1 = 0.9833 | – | 896.93
[1], 291.15 K, x1 = 1 | – | 902.88
[1], 298.15 K, x1 = 0.0704 | – | 666.2
[1], 298.15 K, x1 = 0.127 | – | 675.7
[1], 298.15 K, x1 = 0.193 | – | 687.4
[1], 298.15 K, x1 = 0.2383 | – | 695.9
[1], 298.15 K, x1 = 0.2909 | – | 706.1
[1], 298.15 K, x1 = 0.3466 | – | 717.4
[1], 298.15 K, x1 = 0.444 | – | 738.3
[1], 298.15 K, x1 = 0.4935 | – | 749.5
[1], 298.15 K, x1 = 0.5355 | – | 759.4
[1], 298.15 K, x1 = 0.5869 | – | 772
[1], 298.15 K, x1 = 0.6255 | – | 781.8
[1], 298.15 K, x1 = 0.7012 | – | 801.9
[1], 298.15 K, x1 = 0.7532 | – | 816.4
[1], 298.15 K, x1 = 0.8292 | – | 838.8
[1], 298.15 K, x1 = 0.8612 | – | 848.7
[1], 298.15 K, x1 = 0.9233 | – | 868.5
[1], 298.15 K, x1 = 0.9469 | – | 876.3
[1], 298.15 K, x1 = 1 | – | 894.4
[1], 318.15 K, x1 = 0.0336 | – | 641.5
[1], 318.15 K, x1 = 0.0764 | – | 648.1
[1], 318.15 K, x1 = 0.1448 | – | 659.3
[1], 318.15 K, x1 = 0.2606 | – | 679.9
[1], 318.15 K, x1 = 0.276 | – | 682.8
[1], 318.15 K, x1 = 0.3316 | – | 693.5
[1], 318.15 K, x1 = 0.3976 | – | 707
[1], 318.15 K, x1 = 0.4495 | – | 718.1
[1], 318.15 K, x1 = 0.5054 | – | 730.6
[1], 318.15 K, x1 = 0.5551 | – | 742.2
[1], 318.15 K, x1 = 0.6085 | – | 755.1
[1], 318.15 K, x1 = 0.7048 | – | 779.9
[1], 318.15 K, x1 = 0.7523 | – | 792.9
[1], 318.15 K, x1 = 0.7984 | – | 806
[1], 318.15 K, x1 = 0.8419 | – | 818.8
[1], 318.15 K, x1 = 0.8854 | – | 832.2
[1], 318.15 K, x1 = 0.9305 | – | 846.4
[1], 318.15 K, x1 = 1 | – | 869.6
[1], 328.15 K, x1 = 0.0433 | – | 633.2
[1], 328.15 K, x1 = 0.0847 | – | 639.6
[1], 328.15 K, x1 = 0.1691 | – | 653.4
[1], 328.15 K, x1 = 0.2349 | – | 664.88
[1], 328.15 K, x1 = 0.307 | – | 678
[1], 328.15 K, x1 = 0.3708 | – | 690.6
[1], 328.15 K, x1 = 0.4318 | – | 703.25
[1], 328.15 K, x1 = 0.4918 | – | 716.3
[1], 328.15 K, x1 = 0.5567 | – | 731.2
[1], 328.15 K, x1 = 0.6075 | – | 743.4
[1], 328.15 K, x1 = 0.6523 | – | 754.6
[1], 328.15 K, x1 = 0.7238 | – | 773.4
[1], 328.15 K, x1 = 0.7577 | – | 782.7
[1], 328.15 K, x1 = 0.8221 | – | 800.9
[1], 328.15 K, x1 = 0.8723 | – | 815.8
[1], 328.15 K, x1 = 0.9135 | – | 828.6
[1], 328.15 K, x1 = 0.9832 | – | 851.3
[1], 328.15 K, x1 = 1 | – | 857.17
[2], 291.15 K, x1 = 0.0535 | 0.0674 | –
[2], 291.15 K, x1 = 0.1148 | 0.139 | –
[2], 291.15 K, x1 = 0.1974 | 0.215 | –
[2], 291.15 K, x1 = 0.2736 | 0.275 | –
[2], 291.15 K, x1 = 0.3368 | 0.309 | –
[2], 291.15 K, x1 = 0.3855 | 0.33 | –
[2], 291.15 K, x1 = 0.4401 | 0.344 | –
[2], 291.15 K, x1 = 0.4918 | 0.348 | –
[2], 291.15 K, x1 = 0.5333 | 0.345 | –
[2], 291.15 K, x1 = 0.5714 | 0.341 | –
[2], 291.15 K, x1 = 0.6212 | 0.329 | –
[2], 291.15 K, x1 = 0.6753 | 0.309 | –
[2], 291.15 K, x1 = 0.722 | 0.282 | –
[2], 291.15 K, x1 = 0.7805 | 0.247 | –
[2], 291.15 K, x1 = 0.8412 | 0.199 | –
[2], 291.15 K, x1 = 0.8816 | 0.153 | –
[2], 291.15 K, x1 = 0.9343 | 0.0937 | –
[2], 291.15 K, x1 = 0.9802 | 0.0349 | –
[2], 298.15 K, x1 = 0.0668 | 0.0865 | –
[2], 298.15 K, x1 = 0.1168 | 0.137 | –
[2], 298.15 K, x1 = 0.192 | 0.21 | –
[2], 298.15 K, x1 = 0.2621 | 0.261 | –
[2], 298.15 K, x1 = 0.3186 | 0.289 | –
[2], 298.15 K, x1 = 0.3929 | 0.319 | –
[2], 298.15 K, x1 = 0.439 | 0.329 | –
[2], 298.15 K, x1 = 0.495 | 0.326 | –
[2], 298.15 K, x1 = 0.5309 | 0.324 | –
[2], 298.15 K, x1 = 0.5767 | 0.315 | –
[2], 298.15 K, x1 = 0.6196 | 0.304 | –
[2], 298.15 K, x1 = 0.6757 | 0.286 | –
[2], 298.15 K, x1 = 0.7368 | 0.255 | –
[2], 298.15 K, x1 = 0.7954 | 0.215 | –
[2], 298.15 K, x1 = 0.8424 | 0.17 | –
[2], 298.15 K, x1 = 0.8998 | 0.117 | –
[2], 298.15 K, x1 = 0.9521 | 0.0605 | –
[2], 318.15 K, x1 = 0.076 | 0.11 | –
[2], 318.15 K, x1 = 0.1524 | 0.195 | –
[2], 318.15 K, x1 = 0.2306 | 0.259 | –
[2], 318.15 K, x1 = 0.3029 | 0.3 | –
[2], 318.15 K, x1 = 0.3659 | 0.325 | –
[2], 318.15 K, x1 = 0.4345 | 0.339 | –
[2], 318.15 K, x1 = 0.488 | 0.338 | –
[2], 318.15 K, x1 = 0.5143 | 0.335 | –
[2], 318.15 K, x1 = 0.5368 | 0.333 | –
[2], 318.15 K, x1 = 0.5617 | 0.331 | –
[2], 318.15 K, x1 = 0.6098 | 0.32 | –
[2], 318.15 K, x1 = 0.6645 | 0.301 | –
[2], 318.15 K, x1 = 0.7202 | 0.273 | –
[2], 318.15 K, x1 = 0.7788 | 0.235 | –
[2], 318.15 K, x1 = 0.8406 | 0.184 | –
[2], 318.15 K, x1 = 0.9004 | 0.125 | –
[2], 318.15 K, x1 = 0.9547 | 0.0638 | –
